Laboratory results as given in patent US4791215A, “Derivatives of glutamic acid and aspartic acid” (priority 1984, dated 1988).
Where “and” joins values, the source holds several entries; their conditions need not be identical. Equal entries are not always repeated.

How the values were obtained:
morphine analgesia = assay: Increase in analgesia of morphine, Tail Flick Test (Experiment 1); type: in vivo, rats; conditions: for percentage variation of latency of pain sensation / M (10-90) ± SE, mean percentage variation of latency: compound 10 mg/kg i.p. + morphine 2 mg/kg; for M (10-90) ± SE, mean percentage variation of latency: mean 10-90 min; for Power ratio with respect to morphine alone: rat, in vivo
Procedure, shortened: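 Non-fasted male rats (150-200 g); a tail point is exposed to a 75 °C heat source and latency to tail movement recorded, 8 s cut-off. Readings taken before and 10, 20, 30, 45, 60 and 90 min after analgesic treatment; percentage variation calculated per animal.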

[1] = tested on: CCK-8 induced contraction of guinea pig gall bladder; assay: Anti-CCK activity on gall bladder strips in vitro; conditions: CCK-8 10 ng/ml
Procedure, shortened: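 Longitudinal guinea pig gall bladder strips in Krebs at 32 °C, gassed with O2/CO2 95:5, were contracted with 10 ng/ml CCK-8. Isometric force was recorded across several compound concentrations, and ED50 was taken as the μg/ml concentration antagonising 50% of the CCK contraction.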

[2] = tested on: CCK-8 induced contraction of guinea pig gall bladder; assay: Anti-CCK-8 activity on gall bladders in situ; type: in vivo
Procedure: In order to confirm the evidence of the studies in vitro several of the more interesting compounds were tested in vivo on guinea pig gall baldders in situ.
The method used is that described by Ljungberg (Svensk. Farm. Tidskr. 68, 351-354, 1964).
Guinea pigs having a weight of about 400 g, anaesthetised with urethane, were used; the substances under examination were administered intraveneously into the jugular vein.
The responses of the gall bladders to the substances under test were detected by means of a force transducer and recorded by means of a microdynamometer. The optimum contracting dose was chosen as 10 ng/kg of CCK-8. The antagonist compounds tested were administered in increasing doses so as to enable the calculation of an ED50 value, that is in the dose (in mg/kg i.v.) capable of inhibiting 50% of the contracting effect of 10 ng/kg i.v. of CCK-8.
The results obtained are given in Table 7 below, which gives the doses used and the effects obtained expressed as a percentage inhibition of the contracting effect of CCK-8 as well as the ED50 found.

biliary flow = assay: Biliary flow (choleretic activity); type: in vivo, rat
Procedure: The following experiment was carried out: a cannula was inserted in the bile duct of a rat anaesthetised with urethane, together with a small needle connected to a polythene tube, and the bile liquid was thus collected. The collection was carried out for one hour before the intravenous administration of the tested compounds and for a further two hours after administration, the samples collected at 30 minute intervals being weighed.
In order to prevent possible dehydration of the animals, 0.5 ml of physiological solution was administered at 30 minute intervals up to a total of 3 ml.

[3] = tested on: intestinal transit of carbon; assay: Anti-spastic activity, vegetable carbon intestinal transit test; type: in vivo, mice; conditions: Mus musculus, ip; read-out: antispastic activity ED50 (dose reducing intestinal transit of carbon by 50%)
Description: The anti-spastic activity which the present compounds exert on the entire digestive system is also notable. Measured in mice with the vegetable carbon test (rate of transit through the stomach and the intestine), this activity is illustrated in the following table.
claimed administered intraperitoneally in mice. Values
expressed as the ED 50 in mg/kg, that is the dose which
reduces the intestinal transit of carbon by 50%

CCCN(CCC)C(=O)C(CCC(=O)O)NC(=O)c1cc(C)cc(C)c1 (stereo not drawn) [Compound C-31]
percentage variation of latency of pain sensation (morphine analgesia; 10'): 28.9 ± 17%
percentage variation of latency of pain sensation (morphine analgesia; 20'): 43.3 ± 25%
percentage variation of latency of pain sensation (morphine analgesia; 30'): 54.7 ± 22%
percentage variation of latency of pain sensation (morphine analgesia; 45'): 68.0 ± 22%
percentage variation of latency of pain sensation (morphine analgesia; 60'): 57.4 ± 16%
percentage variation of latency of pain sensation (morphine analgesia; 90'): 49.5 ± 19%
M (10-90) ± SE, mean percentage variation of latency (morphine analgesia): 50.4 ± 14%
Power ratio with respect to morphine alone (morphine analgesia): 1.69
ED50 (concentration antagonising 50% of contracting effect of CCK-8) [1]: 22.9 mg/L
percentage inhibition of contracting effect of CCK-8 ([2]; 30 mg/kg i.v., single experiments): 82.1% and 92.5% and 58.7%
ED50 ([2]; Cavia porcellus, iv, CCK-8 10 ng/kg i.v., read-out: ED50 (inhibition of 50% of contracting effect of CCK-8)): 16.3 mg/kg

N#Cc1cccc(C(=O)NC(CCC(=O)N2CCCCC2)C(=O)O)c1 [Compound D-11]
percentage variation of latency of pain sensation (morphine analgesia; 10'): 25.3 ± 7.0%
percentage variation of latency of pain sensation (morphine analgesia; 20'): 68.3%
percentage variation of latency of pain sensation (morphine analgesia; 30'): 74.8 ± 18.0%
percentage variation of latency of pain sensation (morphine analgesia; 45'): 82.8 ± 17.0%
percentage variation of latency of pain sensation (morphine analgesia; 60'): 86.2 ± 14.0%
percentage variation of latency of pain sensation (morphine analgesia; 90'): 77.5 ± 13.0%
M (10-90) ± SE, mean percentage variation of latency (morphine analgesia): 69.1%
Power ratio with respect to morphine alone (morphine analgesia): 2.32
ED50 (concentration antagonising 50% of contracting effect of CCK-8) [1]: > 200 mg/L
% increase in biliary flow with respect to controls (biliary flow; 12.5 mg/kg i.v.): +33.7%
% increase in biliary flow with respect to controls (biliary flow; 25 mg/kg i.v.): +80.0%
% increase in biliary flow with respect to controls (biliary flow; 50 mg/kg i.v.): +118.8%
ED50 (biliary flow; Rattus norvegicus, iv, average over 2 hours, read-out: ED50 (dose causing 50% increase in biliary flow)): 18.5 mg/kg

CCCc1ccc(C(=O)NC(CCC(=O)O)C(=O)N(CC)CC)cc1 (stereo not drawn) [Compound C-41]
percentage variation of latency of pain sensation (morphine analgesia; 10'): 32.1 ± 18%
percentage variation of latency of pain sensation (morphine analgesia; 20'): 60.0 ± 22%
percentage variation of latency of pain sensation (morphine analgesia; 30'): 40.0 ± 17%
percentage variation of latency of pain sensation (morphine analgesia; 45'): 46.7 ± 23%
percentage variation of latency of pain sensation (morphine analgesia; 60'): 11.5%
percentage variation of latency of pain sensation (morphine analgesia; 90'): 7.4 ± 20%
M (10-90) ± SE, mean percentage variation of latency (morphine analgesia): 32.9 ± 20%
Power ratio with respect to morphine alone (morphine analgesia): 1.10
ED50 [3]: 182 mg/kg

CCCCCCNC(=O)C(CCC(=O)O)NC(=O)c1ccc(C)c(C)c1 (stereo not drawn) [Compound C-46]
percentage variation of latency of pain sensation (morphine analgesia; 10'): 14.7 ± 9%
percentage variation of latency of pain sensation (morphine analgesia; 20'): 60.0 ± 18%
percentage variation of latency of pain sensation (morphine analgesia; 30'): 28.0 ± 5%
percentage variation of latency of pain sensation (morphine analgesia; 45'): 55.2 ± 20%
percentage variation of latency of pain sensation (morphine analgesia; 60'): 30.2 ± 17%
percentage variation of latency of pain sensation (morphine analgesia; 90'): 12.2 ± 11%
M (10-90) ± SE, mean percentage variation of latency (morphine analgesia): 32.9 ± 21%
Power ratio with respect to morphine alone (morphine analgesia): 1.10
ED50 [3]: 66.9 mg/kg

CCCCc1ccc(C(=O)NC(CCC(=O)O)C(=O)N(CCC)CCC)cc1 (stereo not drawn) [Compound C-37]
percentage variation of latency of pain sensation (morphine analgesia; 10'): 27.6 ± 13%
percentage variation of latency of pain sensation (morphine analgesia; 20'): 45.8 ± 18%
percentage variation of latency of pain sensation (morphine analgesia; 30'): 55.0 ± 16%
percentage variation of latency of pain sensation (morphine analgesia; 45'): 51.1%
percentage variation of latency of pain sensation (morphine analgesia; 60'): 23.4 ± 21%
percentage variation of latency of pain sensation (morphine analgesia; 90'): 12.4 ± 13%
M (10-90) ± SE, mean percentage variation of latency (morphine analgesia): 35.9 ± 17%
Power ratio with respect to morphine alone (morphine analgesia): 1.20
ED50 [3]: 160 mg/kg
